From PubChem BioAssay AID1963847 (Molecular Pharmacology Branch, DTP, NCI, 2024)

Tested on: 415267-285-R-J2-PDC complex spheroid viability
Assay: Anticancer human tumor 415267-285-R-J2-PDC patient-derived breast carcinoma cell line growth inhibition [POLQ]
Settings: for IC50: curve of first compound; for viability, T/C: stronger effect = lower value
Method: Multicellular complex tumor spheroid response to Polymerase (POL) inhibitors (novobiocin, ART-558, RP6685) in combination with a variety of drugs and investigational agents in selected tumor cell lines
The POL inhibitors (novobiocin, ART-558, and RP6685) were evaluated both individually and in combination with standard of care and investigational anticancer small molecules within a complex spheroid model of solid tumors. . Complex spheroids include a stromal component modeled by human endothelial cells (HUVEC) and fibroblasts modeled by human mesenchymal stem cells (MSCs). The concentration ranges selected for each drug and investigational agent were based upon clinically achievable concentrations if the clinical Cmax of the agent was known.
Compounds. The drugs and investigational agents: novobiocin (NSC847541), ART-558 (NSC835418), RP-6685 (NSC848927), peposertib (NSC802822), ceralasertib (NSC780249), elimusertib (NSC800525), camonsertib (NSC841442), AZD-1390 (NSC803789), olaparib (NSC753686), talazoparib (NSC767125), rucaparib (NSC756644), sotorasib (NSC818433), MRTX-1133 (NSC836407), SN-38 (NSC673596), topotecan (NSC609699), epotoside (NSC141540), doxorubicin (NSC123127), gemcitabine (NSC613327), 5-fluorouracil (NSC19893), paclitaxel (NSC125973), vemurafenib (NSC761431), MSA-2 (NSC828583), SN-011 (NSC837082), adavosertib (NSC754352), prexasertib (NSC758257), carboplatin (NSC241240) and oxaliplatin (NSC266046), were obtained from the National Cancer Institute (NCI) Developmental Therapeutics Program Chemical Repository (21). The FDA-approved anticancer drug set is available from the Developmental Therapeutics Program at https://dtp.cancer.gov/organization/dscb/obtaining/. […] The stock solutions were prepared in dimethyl sulfoxide (DMSO, Sigma-Aldrich, St. Louis, MO, cat. D2650), except for the platinum compounds which were prepared in saline (Quality Biological, Gaithersburg, MD, cat. 114-055-101), at 800-fold the tested concentration and stored at -70 degrees C prior to their use. All drugs and investigational agents were tested over a range starting from a high concentration at or near the clinical Cmax and decreasing in half-log increments. If the clinical Cmax for an agent had not been determined, the highest concentration tested was 10 microM, except for SN-38, which was tested at a high concentration of 1 microM.
Cell Culture. All cells were maintained in an incubator at 37 degrees C and 5% CO2 with 95% humidity. The PDC lines were cultured according to standard operating procedures established by the NCI PDMR (https://pdmr.cancer.gov). Table 3 of the manuscript, lists the cell lines along with the number of the three cell types plated to form the mct-spheroids and media for tumor cell growth. After thawing, all PDC lines, except 997537-175-T-J1-PDC and 415267-285-R-J2-PDC, were cultured in Matrigel-coated flasks prepared with a working solution of 1X Ham's F-12 nutrient mix, without supplementation (Thermo Fisher Scientific, cat. 11765054), 100 U/mL penicillin-streptomycin (Thermo Fisher Scientific, cat. 15140122), and 2.5% Matrigel (Corning Inc., Corning, NY, cat. 354248) for the first three passages. The two PDC lines 997537-175-T-J1-PDC and 415267-285-R-J2-PDC were cultured on uncoated flasks. The 857933-349-R-J2-PDC line was cultured in 6C/Colon 1B media containing advanced DMEM/F-12 (Thermo Fisher Scientific, cat. 12634028), 10 mM HEPES (Thermo Fisher Scientific, cat. 15630080), 1X GlutaMAX supplement (Thermo Fisher Scientific, cat. 35050061), 0.1 mg/mL primocin (InvivoGen, San Diego, CA, cat. ant-pm-2), 10% defined fetal bovine serum, heat inactivated (HyClone Laboratories Inc., Logan, UT, cat. SH30070.03HI), 50% L-WRN conditioned media (ATCC, cat. CRL-3276), 1.25 mM N-Acetyl-L-cysteine (Sigma-Aldrich, cat. A9165), 10 mM nicotinamide (Sigma-Aldrich, cat. N0636), 1X B-27 supplement (Thermo Fisher Scientific, cat. 17504044), 1X N-2 supplement (Thermo Fisher Scientific, cat. […]
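Further: spheroids exposed to compounds for one week before readout.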
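Wherever viability, T/C is given: luminescence used as stand-in measure of viable cells; 100% = DMSO vehicle control viability.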

COc1cccc2c1C(=O)c1c(O)c3c(c(O)c1C2=O)CC(O)(C(=O)CO)CC3OC1CC(N)C(O)C(C)O1 (configuration not stated) + Cc1cccc(N(C)C(=O)C2C(O)CCN2c2nc(C)cc(C(F)(F)F)c2C#N)c1
IC50 (second compound 0.0316 µM): < 31.6 nM | IC50 (second compound 0.1 µM): < 31.6 nM | IC50 (second compound 0.316 µM): < 31.6 nM | IC50 (second compound 1 µM): < 31.6 nM | IC50 (second compound 3.16 µM): < 31.6 nM | IC50 (second compound 10 µM): < 31.6 nM | viability, T/C (second compound 0.0316 µM, first compound 0.0316 µM): 37.8% | viability, T/C (second compound 0.0316 µM, first compound 0.1 µM): 18.6% | viability, T/C (second compound 0.0316 µM, first compound 0.316 µM): 4.26% | viability, T/C (second compound 0.0316 µM, first compound 1 µM): 0.86% | viability, T/C (second compound 0.0316 µM, first compound 3.16 µM): 1% | viability, T/C (second compound 0.0316 µM, first compound 10 µM): 2.87% | viability, T/C (second compound 0.1 µM, first compound 0.0316 µM): 38.3% | viability, T/C (second compound 0.1 µM, first compound 0.1 µM): 11.9% | viability, T/C (second compound 0.1 µM, first compound 0.316 µM): 5.5% | viability, T/C (second compound 0.1 µM, first compound 1 µM): 0.82% | viability, T/C (second compound 0.1 µM, first compound 3.16 µM): 0.95% | viability, T/C (second compound 0.1 µM, first compound 10 µM): 3.55% | viability, T/C (second compound 0.316 µM, first compound 0.0316 µM): 36.5% | viability, T/C (second compound 0.316 µM, first compound 0.1 µM): 13.7% | viability, T/C (second compound 0.316 µM, first compound 0.316 µM): 4.69% | viability, T/C (second compound 0.316 µM, first compound 1 µM): 0.81% | viability, T/C (second compound 0.316 µM, first compound 3.16 µM): 1.46% | viability, T/C (second compound 0.316 µM, first compound 10 µM): 2.87% | viability, T/C (second compound 1 µM, first compound 0.0316 µM): 42.5% | viability, T/C (second compound 1 µM, first compound 0.1 µM): 8.66% | viability, T/C (second compound 1 µM, first compound 0.316 µM): 4.35% | viability, T/C (second compound 1 µM, first compound 1 µM): 0.62% | viability, T/C (second compound 1 µM, first compound 3.16 µM): 1.26% | viability, T/C (second compound 1 µM, first compound 10 µM): 2.94% | viability, T/C (second compound 3.16 µM, first compound 0.0316 µM): 40.4% | viability, T/C (second compound 3.16 µM, first compound 0.1 µM): 13.7% | viability, T/C (second compound 3.16 µM, first compound 0.316 µM): 5.27% | viability, T/C (second compound 3.16 µM, first compound 1 µM): 0.66% | viability, T/C (second compound 3.16 µM, first compound 3.16 µM): 1.47% | viability, T/C (second compound 3.16 µM, first compound 10 µM): 2.63% | viability, T/C (second compound 10 µM, first compound 0.0316 µM): 24.7% | viability, T/C (second compound 10 µM, first compound 0.1 µM): 9.06% | viability, T/C (second compound 10 µM, first compound 0.316 µM): 7.17% | viability, T/C (second compound 10 µM, first compound 1 µM): 0.84% | viability, T/C (second compound 10 µM, first compound 3.16 µM): 3.16% | viability, T/C (second compound 10 µM, first compound 10 µM): 3.87%
